Key:
[1] = test system: MCF10A cells; test: Chemical inhibition of Latrunculin-A-enhanced microtubule protrusions in suspended cells; type: cell-based, human; settings: MCF10A in suspension, then LA 5 μM one hour; sodium orthovanadate 1 mM, S-Trityl-L-Cysteine 100 μM, TDZD-8 20 μM
Method: MCF10A cells were placed into suspension in the presence of the indicated chemical inhibitors targeted at specific signaling pathways or the corresponding vehicle controls. Cells were then treated with the actin polymerization inhibitor, Latrunculin-A (LA, 5 μM) for one hour to enhance protrusions. […] Thus, protrusions can be reduced by chemical inhibition of specific signaling proteins.

[2] = test system: microtentacles; test: Microtentacle frequency after pretreatment with Okadaic Acid or Calyculin-A; type: cell-based; settings: pretreated 1 h, suspended with or without Latrunculin-A
Method: In FIG. 35, cells were pretreated for 1 h with DMEM media alone (Control) or the indicated concentrations of either Okadaic Acid (OKA) […] or Calyculin-A (Cal-A) to promote vimentin disassembly. Cells were then suspended by trypsinization with or without addition of Latrunculin-A (LA) to enhance microtentacle frequency.

[3] = test system: EpH4 cells; test: Protrusions in suspended cells treated with cytoskeletal inhibitors (EpH4); type: cell-based, mouse; settings: EpH4, 15 minutes of suspension; Latrunculin-A 5 μM, Colchicine 1 μM
Method: (§1) In FIG. 2A, after 15 minutes of suspension, protrusions in EpH4 and MCF10A cells are quite small (Control, white arrows). […] In FIG. 2B, populations of live, suspended cells were scored blindly for two or more protrusions longer than the cell radius. Each bar represents the mean+S.D. for three experiments in which at least 100 single cells were counted.
EpH4 cells were suspended in either DMEM (Control) or media containing 5 μM Latrunculin-A (LA), 1 μM Colchicine or the combination of both drugs for 30 minutes. Cells were then spun onto glass coverslips and fluorescently stained for α-tubulin (green) and polymerized actin (red). Protrusions that are difficult to see by phase contrast are easily discernible with immunostaining for α-tubulin (white arrows). Protrusions contain little polymerized actin, except at points of concentration, which are often at the end (arrowhead).
EpH4 and B19 cells were suspended over 2% agarose coated plates to prevent attachment in either serum-free DMEM or media containing. Latrunculin-A (5 μM) to enhance protrusions. For co-staining of α-tubulin and actin, suspended cells were then centrifuged onto poly-L-lysine coated coverslips (280 g×5 min), fixed in 3.7% formaldehyde in PBS for 10 min, and permeablized with 0.1% Triton X-100 in PBS. Adhered cells were then stained for 1 hr at room temperature using FITC-conjugated anti-α-tubulin (1:200; Sigma), Alexa-594 phalloidin (1:100; Molecular Probes), and Hoescht 33342 (1:5000; Sigma).
(§2) In order to initially characterize the cytoskeletal mechanism underlying these protrusions, suspended cells were treated with inhibitors of actin and tubulin polymerization (FIG. 2). After 15 minutes of suspension, the protrusions in untreated EpH4 or MCF10A cells remain fairly short (FIG. 2, white arrows). These early protrusions can often be difficult to detect with phase-contrast microscopy, due to interfering light refraction from the plasma membrane. […] Protrusions were more easily visible with immunofluorescence than phase contrast microscopy (FIG. 3, white arrows). Although actin filament staining was generally low along the length of the protrusion, dense points of actin were often found at the end of protrusions (FIG. 3, arrowheads).

[4] = test system: EpH4-Bcl2 cells; test: Cell-substratum attachment assay; type: cell-based, mouse; settings: for attachment of cells to tissue culture surfaces: EpH4-Bcl2 (B19), 1 hr in suspension with inhibitor, then replated
Method: (§3) In FIG. 6A, EpH4-Bcl2 cells were suspended over agarose and treated with inhibitors as above. Following treatment, cells were plated into 0.3% methylcellulose media over agarose and the rate of cell-cell attachment was followed by Hoescht DNA staining. […] Similar results were found in three independent experiments. In FIG. 6B, EpH4-Bcl2 cells suspended over agarose for one hour in DMEM or DMEM containing LA (5 μM), Colchicine (1 μM), or the combination. Reattachment of these cells to either uncoated tissue culture plates or those pre-coated with laminin was followed by XTT cell viability assay. Values represent mean+S.D. of raw XTT values of three separate experiments.
Equivalent numbers of B19 cells were suspended over 6-well plates coated in 2% agarose in serum-free media containing 5 μM Latrunculin-A (LA; BioMol, Plymouth Meeting, Pa.), 100 μM colchicine (Col; Sigma, St. Louis, Mo.), 5 μg/ml nocodazole (Noc), or 1 μg/ml vinblastine (VinB; Sigma) for a duration of 1 hr at 37° C. Cells were collected by centrifugation (1000 rpm×5 min) and drug containing media was aspirated. Cells were resuspended in EpH4 serum-containing growth media and aliquoted out into 24 wells (8 timepoints×3 replicates) of a 96-well clear bottom black plate. After plating, cells were allowed to attach for duration of 15 min, 45 min, 1.5 hr, 2 hr, 3 hr, 4 hr, 5 hr, and 24 hr at which point the media was aspirated from the replicate wells, washed twice in PBS, and fresh growth media was replaced at each timepoint. After 24 hr, all wells were aspirated and cells were incubated in growth media containing Hoescht 33342 (1:5000) for 30 min at 37° C. to label all attached cells. Fluorescence was measured using a Biotek Synergy HT Multi-Detection Microplate Reader (Winooski, Vt.) at excitation wavelength 360 nm and an emission filter of 460 nm followed by subsequent analysis using the KC4 Data Analysis software. The percentage of cell attachment for each treatment exposure was calculated as the RFU at each timepoint divided by the RFU at 24 h (maximum attachment). The standard deviations of triplicates at each timepoint are shown.
(§4) To determine if these microtubule protrusions influence the ability of cells to form attachments, the cells were treated with inhibitors of actin or tubulin polymerization and assessed both cell-cell and cell-substratum attachment (FIG. 6). […] Induction of such nonspecific attachment activity in detached mammary epithelial cells could promote tumor cell dissemination, particularly when apoptotic resistance allows this response to continue for extended periods.

[5] = test system: MCF10A cells; test: Protrusions in suspended cells treated with cytoskeletal inhibitors (MCF10A); type: cell-based, human; settings: MCF10A, 15 minutes of suspension; Latrunculin-A 5 μM, Colchicine 1 μM
Method: as §1, §2
The nontumorigenic human mammary epithelial cell line (MCF10A) or the indicated human breast tumor cell lines were grown in suspension for 30-60 minutes, and protrusions were counted in random fields with phase-contrast microscopy. Values represent the mean±S.D. of three experiments in which at least 100 cells were counted. […] This effect was most apparent in the highly metastatic but exemplary Bt-474 and MDA-MB-231 cells (pictured, black arrows). The exemplary MCF10A cells show far fewer and shorter protrusions at the same time point (pictured, white arrows). Such protrusions are not observed in attached cells.

[6] = test system: detached mammary epithelial cells; test: Protrusions of detached mammary epithelial cells, general statements; type: cell-based, human and mouse
Method: Time-lapse video microscopy of detached mammary epithelial cells detected the extension of long, dynamic protrusions of the plasma membrane, and the present inventors have characterized the cytoskeletal mechanism underlying this novel observation. […] This response may be relatively short-lived, in specific embodiments, since mammary epithelial cells die by apoptosis within about 24 hours in suspension. However, cell lines that resist apoptosis through expression of either Bcl-2 or Bcl-xL will persistently form protrusions. Previous studies by the inventors indicate that such apoptotically-resistant cell lines will not form tumors in mice and lie dormant in distant tissues, in specific embodiments of the invention. […] These microtubule processes can extend more than 3 times the cell diameter, and undergo a rapid probing motion more than once per second. Formation of these microtubule protrusions is necessary for efficient cell-cell and cell-substratum attachment. In particular embodiments of the invention, this inherent microtubule response in detached mammary epithelial cells provides at least some of the invasive characteristics of breast cancer, independent of any tumor-specific genetic alteration, for example.
Breast tumor cells enter the bloodstream long before the development of clinically evident metastasis. However, the early presence of such bloodborne cells predicts poor patient outcome. Nearly 90% of human breast tumors arise as carcinomas from mammary epithelial cells, so it is important to characterize how these cells respond to the detached conditions that they would experience in the bloodstream. In the present invention, mammary epithelial cell lines produce long and dynamic protrusions of the plasma membrane when detached. Although human and mouse mammary epithelial cell lines die by apoptosis within 16 hours of detachment, this protrusive response persists for days in cells overexpressing either Bcl-2 or Bcl-xL, for example. […] Since bloodborne metastasis depends on both cell-cell and cell-matrix attachment, microtubule-based protrusions in detached mammary epithelial cells provide a novel target that could influence the metastatic spread of breast tumors.
Detachment-induced increases in Glu-tubulin could promote plasma membrane protrusions of microtubules by preventing efficient capture at the actin cortex. […] Therefore, our current model is that detachment increases stabilized microtubules enriched in Glu-tubulin, while decreased actin polymerization simply promotes extension of these microtubule protrusions.

[7] = test system: EpH4-Bcl2 cells; test: Cell-cell attachment assay; type: cell-based, mouse; settings: EpH4-Bcl2 in 0.3% methylcellulose over agarose, 5 hours
Method: as §3
B19 cells were seeded onto 10 cm dishes until 80% confluency. The media was aspirated and cells were incubated in fresh growth media containing Hoescht 33342 (1:5000) for 30 min at 37° C. to label all attached cells. The cells were washed twice in PBS, detached by trypsinization, and an equivalent number of cells were resuspended in serum-free media containing 0.3% methylcellulose with either 5 μM Latrunculin A, 100 μM Colchicine, 1 μg/ml vinblastine, or 5 μg/ml nocodazole and plated over 2% agarose-coated 24-well plates. The progression of cell-cell adhesion over time was visualized by the EpiChemi3 Imaging System (UVP, Inc.; Upland, Calif.) using an excitation wavelength of 365 nm and a blue band pass filter. Images were obtained with an attached Hamamatsu CCD camera (Hamamatsu Photonics, Hamamatsu City, Japan) and analyzed with UVP Labworks Image Acquisition and Analysis Software v. 4.6.
as §4

[8] = test system: Bt-474; test: GFP-membrane protrusion counts after local anesthetics (Bt-474); type: cell-based, human; settings: Bt-474, GFP-membrane; Lidocaine 50 mM, Tetracaine 2.5 mM; with or without LA
Method: (§5) Cells were then suspended in DMEM culture media with or without […] Latrunculin-A (LA) to induce protrusions by depolymerizing actin. […] Bars represent mean+S.D. of at least three blindly counted experiments.

[9] = test system: MDA-231; test: GFP-membrane protrusion counts after local anesthetics (MDA-231); type: cell-based, human; settings: MDA-231, GFP-membrane; Lidocaine 50 mM, Tetracaine 2.5 mM; with or without LA
Method: as §5

[10] = test system: metastasis; settings: known, via unclear mechanism; cited from earlier work

SMILES: CCCCCC[C@@H]([C@@H](C)O)n1cnc2c(N)ncnc21 (racemic) [EHNA]
- protrusions [1]: reduced protrusions, but these results were not statistically significant

SMILES: COC[C@@H]([C@H](O)[C@H](O)C(=O)NCC[C@H](C)c1nc(/C=C/C[C@@H]2O[C@]3(C[C@@H](O)[C@@H]2C)O[C@H]([C@H](C[C@H](O)[C@H](C)[C@H](O)[C@H](C)/C=C(C)/C(C)=C/C=C/C(C)=C\C#N)OC)[C@H](OP(=O)(O)O)C3(C)C)co1)N(C)C [Calyculin-A]
- microtentacles [2]: reduce microtentacles significantly
- microtentacles ([2]; listed as calyculin-A): reduces microtentacles

SMILES: COc1cc2c(c(OC)c1OC)-c1ccc(OC)c(=O)cc1[C@@H](NC(C)=O)CC2 [Colchicine]
- protrusions [3]: prevented protrusions
- attachment of cells to tissue culture surfaces [4]: significantly delayed attachment
- cell-surface attachment to uncoated or laminin-coated plates (XTT) ([4]; EpH4-Bcl2 suspended one hour, LA 5 μM, Colchicine 1 μM): significantly prevents initial cell attachment
- protrusions [5]: prevented protrusions
- protrusions [6]: inhibited
- cell-cell attachment (clustering) [7]: prevented efficient clustering

SMILES: CCN(CC)CC(=O)Nc1c(C)cccc1C [Lidocaine]
- protrusions [8]: inhibited significantly
- protrusions [9]: inhibited significantly
- metastasis [10]: reduce metastasis

SMILES: C=C1[C@@H](O)[C@@H]2O[C@]3(CC[C@H](/C=C/[C@@H](C)[C@@H]4CC(C)=C[C@@]5(O[C@H](C[C@@](C)(O)C(=O)O)CC[C@H]5O)O4)O3)CC[C@H]2O[C@@H]1[C@@H](O)C[C@H](C)[C@H]1O[C@@]2(CCCCO2)CC[C@H]1C [Okadaic acid]
- microtentacles [2]: reduce microtentacles significantly
- microtentacles ([2]; listed as okadaic acid): reduces microtentacles

SMILES: N[C@@H](CSC(c1ccccc1)(c1ccccc1)c1ccccc1)C(=O)O [S-Trityl-L-Cysteine]
- protrusions [1]: significantly reduces protrusions

SMILES: CN[C@H]1CCc2cc(OC)c(OC)c(OC)c2-c2ccc(OC)c(=O)cc21 [colcemid]
- protrusions [6]: inhibited

SMILES: COc1ccc(CNc2nc(NCc3ccc(OC)cc3)c3ncn(C(C)C)c3n2)cc1 [myoseverin]
- protrusions [6]: inhibited

SMILES: COC(=O)Nc1nc2ccc(C(=O)c3cccs3)cc2[nH]1 [nocodazole]
- attachment of cells to tissue culture surfaces [4]: significantly delayed attachment
- protrusions [6]: inhibited
- cell-cell attachment (clustering) [7]: prevented efficient clustering

SMILES: [Na+].[Na+].[Na+].[O]=[V]([O-])([O-])[O-] [sodium orthovanadate]
- protrusions [1]: significantly reduces protrusions

SMILES: CC[C@]1(O)C[C@@H]2CN(CCc3c([nH]c4ccccc34)[C@@](C(=O)OC)(c3cc4c(cc3OC)N(C)[C@H]3[C@@](O)(C(=O)OC)[C@H](OC(C)=O)[C@]5(CC)C=CCN6CC[C@]43[C@@H]65)C2)C1 [vinblastine]
- attachment of cells to tissue culture surfaces [4]: significantly delayed attachment
- protrusions [6]: inhibited
- cell-cell attachment (clustering) [7]: prevented efficient clustering

SMILES: CC[C@]1(O)C[C@H]2CN(CCc3c([nH]c4ccccc34)[C@@](C(=O)OC)(c3cc4c(cc3OC)N(C=O)[C@H]3[C@@](O)(C(=O)OC)[C@H](OC(C)=O)[C@]5(CC)C=CCN6CC[C@]43[C@@H]65)C2)C1 [vincristine]
- protrusions [6]: inhibited

— patent US8193238B2, “Inhibition of microtubule protrusion in cancer cells” (University of Maryland, Baltimore, priority 2006, dated 2012)
